# Entries after “also recorded” stand apart in the source; their conditions may differ. Where two headings read alike, the source gives them in different places.
# Assays:
# [1] = tested on: HIV-1 Env-pseudoviruses (30-strain panel); assay: Neutralization assay, cross-clade 30-strain panel (Env-pseudoviruses, TZM-bl target cells); assay type: cell-based; settings: for IC50: Human immunodeficiency virus 1, TZM-bl; for number of viruses neutralized: of the 30 viruses
# Experimental: Neutralization was measured using single-round-of-infection HIV-1 Env-pseudoviruses and TZM-bl target cells (ARP Cat No. #8129)[44],[45]. Compounds were prepared at 400 μM with 4% DMSO (dimethyl sulfoxide) in PBS (phosphate-buffered saline) and diluted 20 times as the starting concentration for serial dilution in the neutralization assays. […] After incubation at 37 °C for 2 days, infection of target cells was measured by luciferase activity. Neutralization curves were fit by nonlinear regression using a five-parameter hill slope equation[45].
# TZM-bl cells [2] = tested on: TZM-bl cells; set-up: method as in literature; settings: not measured here; ref literature; cited from earlier work
# HIV-1 strain NL4-3 = assay: Entry inhibition of laboratory-adapted HIV-1 strain NL4-3; assay type: cell-based
# TZM-bl cells [3] = assay: Cytotoxicity in the neutralization assay (TZM-bl cells + drugs); settings: highest concentration (20 μM)
# [4] = 242-14 (Clade AG), read-out: IC50
# [5] = 247-23 (Clade D), read-out: IC50
# [6] = 0330.v4.c3 (Clade A), read-out: IC50
# [7] = 7165.18 (Clade B), read-out: IC50
# [8] = BJOX028000.10.3 (Clade AE), read-out: IC50
# [9] = BL01.DG (Clade B), read-out: IC50
# [10] = C4118.09 (Clade AE), read-out: IC50
# [11] = CAP210.E8 (Clade C), read-out: IC50
# [12] = CH119.10 (Clade BC), read-out: IC50
# [13] = CNE10 (Clade B), read-out: IC50
# [14] = CNE20 (Clade BC), read-out: IC50
# [15] = CNE56 (Clade AE), read-out: IC50
# [16] = DJ263.8 (Clade AG), read-out: IC50
# [17] = DU156.12 (Clade C), read-out: IC50
# [18] = Geomean, 30-strain panel, read-out: Geometric mean IC50
# [19] = KER2008.12 (Clade A), read-out: IC50
# [20] = MB201.A1 (Clade A), read-out: IC50
# [21] = NKU3006.ec1 (Clade D), read-out: IC50
# [22] = P0402.c2.11 (Clade G), read-out: IC50
# [23] = PVO.04 (Clade B), read-out: IC50
# [24] = R3265.c6 (Clade AE), read-out: IC50
# [25] = REJO.67 (Clade B), read-out: IC50
# [26] = T253-11 (Clade AG), read-out: IC50
# [27] = T280-5 (Clade AG), read-out: IC50
# [28] = ZM106.9 (Clade C), read-out: IC50
SMILES,"IC50 [1, 4] [nM]","IC50 [1, 5] [nM]","IC50 [1, 6] [nM]","IC50 ([1]; 426c (Clade C), read-out: IC50) [nM]","IC50 [1, 7] [nM]","IC50 ([1]; B41 (Clade B), read-out: IC50) [nM]","IC50 [1, 8] [nM]","IC50 [1, 9] [nM]","IC50 [1, 10] [nM]","IC50 [1, 11] [nM]","IC50 [1, 12] [nM]","IC50 [1, 13] [nM]","IC50 [1, 14] [nM]","IC50 [1, 15] [nM]","IC50 [1, 16] [nM]","IC50 [1, 17] [nM]","IC50 [1, 18] [nM]","IC50 [1, 19] [nM]","IC50 [1, 20] [nM]","IC50 [1, 21] [nM]",also measured
"COc1ccnc2[nH]cc(C(=O)C(=O)N3CCN(C(=O)c4ccccc4)C[C@H]3C)c12 [BMS-378806, 4-benzoyl-1-[(4-methoxy-1H-pyrrolo[2,3-b]pyridin-3-yl)oxoacetyl]-2-(R)-methylpiperazine, reference compound]",–,–,–,–,–,–,–,–,–,–,–,–,–,–,–,–,–,–,–,–,IC50 ([1]; read-out: Geometric mean IC50): > 912 nM; Cytotoxicity (TZM-bl cells [2]): lack of cytotoxicity
O=C(C(=O)N1CCN(C(=O)c2ccccc2)CC1)c1c[nH]c2c(F)ccc(Br)c12 [BMS-386150],7020,> 20000,> 20000,6620,> 20000,117,> 20000,> 20000,> 20000,> 20000,13700,509,> 20000,> 20000,> 20000,1350,> 6720,> 20000,> 20000,256,"fold lower neutralization potency than BMS-378806 ([1]; 30-strain panel): ~ 7 fold; IC50 [1, 22]: > 20000 nM; IC50 [1, 23]: 664 nM; IC50 [1, 24]: > 20000 nM; IC50 [1, 25]: > 20000 nM; IC50 [1, 26]: 541 nM; IC50 [1, 27]: 2020 nM; IC50 [1, 28]: 10800 nM; IC50 ([1]; read-out: IC50): 4670 nM"
"O=C(c1ccsc1)N1CCN(C(=O)C2(c3cccc(Cl)c3)CC2)CC1 [Compound 484, reference compound]",> 20000,> 20000,> 20000,13400,> 20000,1730,> 20000,> 20000,> 20000,> 20000,> 20000,1940,> 20000,> 20000,2780,7690,> 12300,> 20000,> 20000,1650,"IC50 [1, 22]: > 20000 nM; IC50 [1, 23]: 7870 nM; IC50 [1, 24]: > 20000 nM; IC50 [1, 25]: > 20000 nM; IC50 [1, 26]: 3350 nM; IC50 [1, 27]: 11900 nM; IC50 [1, 28]: > 20000 nM; IC50 ([1]; […], read-out: IC50): 13600 nM; IC50 ([1]; read-out: IC50): > 20000 nM; number of viruses neutralized [1]: 11"
COc1cnc(-c2csc(CN(C)CCCN(C)C)n2)c2[nH]cc(C(=O)C(=O)N3CCC(=C(C#N)c4ccccc4)CC3)c12 [BMS-814508],15,16,96,36,491,1,> 4000,2810,2000,400,4,4,143,> 4000,< 0.3,20,> 51,165,192,1,"EC50 (HIV-1 strain NL4-3; Human immunodeficiency virus 1, NL43, NL4-3): 0.495 ± 0.069 nM; fold more potent than BMS-626529 (HIV-1 strain NL4-3; NL4-3 EC50): 4 fold; IC50 [1, 22]: 12 nM; IC50 [1, 23]: 2 nM; IC50 [1, 24]: 1060 nM; IC50 [1, 25]: 2730 nM; IC50 [1, 26]: < 0.3 nM; IC50 [1, 27]: 0.8 nM; IC50 [1, 28]: 31 nM; IC50 ([1]; read-out: IC50): 8 nM; number of viruses neutralized [1]: 28; Cytotoxicity (TZM-bl cells [3]): showed cytotoxicity; also recorded: Cytotoxicity was observed"

# Source: article PMC6318274, “Lattice engineering enables definition of molecular features allowing for potent small-molecule inhibition of HIV-1 entry” (Nature Communications, 2019)
